This data set can be described thus: FTIR spectroscopy secondary structure. The data set is classed as physicochemical. The settings on record: 2 mM peptide in deuterated 10 mM phosphate buffer pD 5.6, 25°C, means of four separate determinations, SE ± 5% or better.
For the substance “Arg Cys^S- Arg Phe Arg Val D-Pro Cha His Arg Tyr Arg Cys^s Arg -CON H2 (disulfide) [HCV5]”, the “% Conformation Disordered” value is given as 12.83%, the “% Conformation Turn” value was 25.72%, the “% Conformation α-Helix” value is on record as 10.55% and the “% Conformation β-Sheet” value was determined as 50.90%.

For “Cys^S- Ser Phe Arg Val Gly Leu His Glu Tyr Pro Cys^s -CON H2 (disulfide) [HCV3]”, the “% Conformation Disordered” value is listed as 12.04%, the “% Conformation Turn” value is on record as 21.96%, the “% Conformation α-Helix” value is on record as 11.60% and the “% Conformation β-Sheet” value was found to be 54.34%.

On to “Pal-Ahx-Ahx- Arg Cys^S- Arg Phe Arg Val D-Pro Cha His Arg Tyr Arg Cys^S- Arg -CON H2 (disulfide) [HCV6]”, for which the “% Conformation Disordered” value is reported as 14.40%, the “% Conformation Turn” value is on record as 20.39%, the “% Conformation α-Helix” value came to 12.34% and the “% Conformation β-Sheet” value is reported as 52.87%.

With “Val Ser Phe Arg Val Gly Leu His Glu Tyr Pro Val -CON H2 [HCV1]”, the “% Conformation Disordered” value was determined as 23.74%, the “% Conformation Turn” value was found to be 31.05%, the “% Conformation α-Helix” value came to 2.10% and the “% Conformation β-Sheet” value was determined as 43.11%.
